Measured values reported in patent US20250042961A1, “P53 PEPTIDOMIMETIC MACROCYCLES” (MERCK SHARP & DOHME LLC, priority 2021, published 2025).
Values after ≈ are worked out from the molar mass of the structure shown. Where two headings read alike, the source gives them in different places. *1 amine or outer side, *2 acyl side, *3 side chain or, on linkers, in order; H or OH if unused. Where a SMILES comes first, the peptide text is derived from it. Bridges are numbered along the chain shown (N, C = ends). [ ]: non-standard residue; d: D form. ξ: configuration not given here. ξαMeNle(6-ylidene) = CC(CCCC=[*:3])(N[*:1])C(=O)[*:2]; dPhe(4-CF3) = N[C@H](Cc1ccc(C(F)(F)F)cc1)C(=O)O; dTrp(6-F) = N[C@H](Cc1c[nH]c2cc(F)ccc12)C(=O)O

Columns and labels:
[1] = target: T1, MDM2 (1-125) (Homo sapiens, UniProt Q00987); assay: Competitive fluorescence anisotropy assay (FP Kd MDM2); type: binding
T1 construct: GST (N); His6 (N); TEV cleavage site ENLYFQG (N); made in house; host or cells: Escherichia coli BL21 (DE3) Rosetta T1R
Text: For use in the peptide binding assay, a human MDM2 1-125 sequence was cloned into a pNIC-GST vector. The TEV (tobacco etch virus) cleavage site was changed from ENLYFQS (SEQ ID NO: 13) to ENLYFQG (SEQ ID NO: 14) to give a fusion protein with the following sequence:
[P] is the protein concentration (MDM2), [L] is the labeled peptide concentration, r is the anisotropy measured, r0 is the anisotropy of the free peptide, rb is the anisotropy of the MDM2-FAM-labeled peptide complex, Kd is the dissociation constant, [L]t is the total FAM labeled peptide concentration, and [P]t is the total MDM2 concentration. […] These values were then used to determine apparent Kd values of the respective competing ligands in subsequent competition assays in fluorescence anisotropy experiments. MDM2 and MDM4 competition experiments were performed with their respective concentrations held constant at 250 nM and 75 nM, in the presence of 50 nM of FAM-labeled 12/1. The competing molecules were then titrated against the complex of the FAM-labeled peptide and protein. Apparent Kd values were determined by fitting the experimental data to the equations shown below:
[L]st and [L]t denote labeled ligand and total unlabeled ligand input concentrations, respectively. Kd2 is the dissociation constant of the interaction between the unlabeled ligand and the protein.
In all competition experiments, it is assumed that [P]t>[L]st, otherwise considerable amounts of free labeled ligand would always be present and would interfere with measurements. Kd1 is the apparent Kd for the labeled peptide used and has been experimentally determined as described in the previous paragraph. The FAM-labeled peptide was dissolved in dimethyl sulfoxide (DMSO) at 1 mM and diluted into experimental buffer. Readings were carried out with an Envision Multilabel Reader (PerkinElmer). Experiments were carried out in PBS (2.7 mM KCl, 137 mM NaCl, 10 mM Na2HPO4 and 2 mM KH2PO4 (pH 7.4)) and 0.1% Tween-20 buffer. All titrations were carried out in triplicate. Curve-fitting was carried out using Prism 4.0 (GraphPad®). […] Negative control titrations of the ligands under investigation were also carried out with the fluorescently labeled peptide (in the absence of MDM2) to ensure no interactions were occurring between the ligands and the FAM-labeled peptide. […] Measurements were taken a minimum of three times (biological replicates) and values are reported as geometric means of the replicates.

[2] = test system: Jump-In T-REx CHO-K1 BLA cells; assay: Tetracycline beta-lactamase reporter gene cellular assay (counterscreen); type: cell-based
Procedure: This assay was based on Jump-In™ T-REx™ CHO-K1 BLA cells containing a stably integrated β-lactamase under the control of an inducible cytomegalovirus (CMV) promoter. Cells were maintained in Dulbecco's Minimal Eagle Medium (DMEM) with 10% fetal bovine serum (FBS), Blasticidin, and Penicillin/Streptomycin and then transferred to 1.5 mL freezing vials and stored under liquid nitrogen in growth media containing 5% DMSO. […] Cells were seeded into a 384-well plate at a density of 4000 cells per well. […] The final working concentration of DMSO was 0.5%. β-lactamase activity was detected using the ToxBLAzer Dual Screen (Invitrogen), as per the manufacturer's instructions. Measurements were carried out using the Envision multiplate reader (PerkinElmer). Counterscreen activity was defined as the amount of β-lactamase activity induced by tetracycline. Measurements were taken a minimum of three times (biological replicates) and values are reported as geometric means of the replicates.

[3] = Solubility (PBS, pH 7)
[4] = test system: p53 responsive β-lactamase reporter in HCT116 cells; assay: p53 beta-lactamase reporter gene cellular functional assay; type: cell-based
Procedure: HCT116 cells were stably transfected with a p53 responsive β-lactamase reporter and expanded in McCoy's 5A Medium with 10% fetal bovine serum (FBS), Blasticidin, and Penicillin/Streptomycin and then transferred to 1.5 mL freezing vials and stored under liquid nitrogen in growth media containing 5% DMSO. […] The cells were then seeded into a 384-well plate at a density of 8000 cells per well. […] The final working concentration of DMSO was 0.5%. β-lactamase activity was detected using the ToxBLAzer Dual Screen (Invitrogen), as per the manufacturer's instructions. Measurements were made using the Envision multiplate reader (PerkinElmer). […] Measurements were taken a minimum of three times (biological replicates) and values are reported as geometric means of the replicates.

[5] = read-out: Counter screen EC50 (0% FBS, 4 h), 0% FBS, 4 h
[6] = read-out: Counter screen EC50 (10% FBS, 16 h), 10% FBS, 16 h
[7] = read-out: p53 activity EC50 (0% FBS, 4 h), 0% FBS, 4 h
[8] = read-out: p53 activity EC50 (10% FBS, 16 h), 10% FBS, 16 h

T1 sequence (Q00987 with tags, fused parts or gaps): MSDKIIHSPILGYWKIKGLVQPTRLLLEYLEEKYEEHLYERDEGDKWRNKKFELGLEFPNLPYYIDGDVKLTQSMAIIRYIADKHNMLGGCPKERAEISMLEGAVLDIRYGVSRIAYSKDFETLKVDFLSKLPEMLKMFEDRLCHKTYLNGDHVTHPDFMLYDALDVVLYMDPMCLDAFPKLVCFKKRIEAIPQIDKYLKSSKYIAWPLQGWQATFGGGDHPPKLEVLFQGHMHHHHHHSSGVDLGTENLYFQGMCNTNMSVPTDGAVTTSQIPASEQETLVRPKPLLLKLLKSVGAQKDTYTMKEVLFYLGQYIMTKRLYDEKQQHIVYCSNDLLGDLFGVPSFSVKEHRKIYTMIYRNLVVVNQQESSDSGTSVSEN

| Compound | Kd [1] | EC50 [2, 5] | EC50 [2, 6] | solubility [3] | EC50 [4, 7] | EC50 [4, 8] |
| --- | --- | --- | --- | --- | --- | --- |
| CC(=O)N[C@@H](C(=O)N[C@H](C)C(=O)N[C@H](Cc1c[nH]c2cc(F)ccc12)C(=O)N[C@H](Cc1ccc(O)cc1)C(=O)N[C@H](C)C(=O)NC1(C)CCC/C=C\CCCC(C)(C(=O)N[C@H](CC(C)C)C(=O)N[C@H](CO)C(=O)N[C@H](C)C(=O)N[C@H](C)C(=O)N[C@H](C)C(=O)N[C@H](C)C(=O)N[C@H](C)C(=O)N[C@H](C)C(=O)N[C@H](C)C(=O)N[C@H](C)C(=O)N[C@H](C)C(N)=O)NC(=O)[C@@H](CCC(N)=O)NC(=O)[C@@H](CCC(=O)O)NC(=O)[C@@H](Cc2ccc(C(F)(F)F)cc2)NC1=O)[C@H](C)O (stereo partly drawn) [Compound 5, Acetyl- ^DPMI-δ-(6-10 olefinstaple) (D-K9D-Q, D-R12D-S, 9x(D-A)polypeptidetail)-NH2] (Ac-[dT][dA][dTrp(6-F)][dY][dA][ξαMeNle(6-ylidene)][dPhe(4-CF3)][dE][dQ][ξαMeNle(6-ylidene)][dL][dS][dA][dA][dA][dA][dA][dA][dA][dA][dA]-NH2; staple (Z) 6-10) | 0.0217 µM | > 50 µM | > 50 µM | 16 µM (≈ 35.7 µg/mL) | ≥ 50 µM | > 50 µM |
| CC(=O)N[C@@H](C(=O)N[C@H](C)C(=O)N[C@H](Cc1c[nH]c2cc(F)ccc12)C(=O)N[C@H](Cc1ccc(O)cc1)C(=O)N[C@H](C)C(=O)NC1(C)CCC/C=C\CCCC(C)(C(=O)N[C@H](CC(C)C)C(=O)N[C@H](CO)C(=O)N[C@H](C)C(=O)N[C@H](C)C(=O)N[C@H](C)C(N)=O)NC(=O)[C@@H](CCC(N)=O)NC(=O)[C@@H](CCC(=O)O)NC(=O)[C@@H](Cc2ccc(C(F)(F)F)cc2)NC1=O)[C@H](C)O.N (stereo partly drawn) [Compound 3, Acetyl-^DPMI-δ-(6-10 olefinstaple) (D-K9D-Q, D-R12D-S, 3x(D-A)polypeptidetail)-NH2] (Ac-[dT][dA][dTrp(6-F)][dY][dA][ξαMeNle(6-ylidene)][dPhe(4-CF3)][dE][dQ][ξαMeNle(6-ylidene)][dL][dS][dA][dA][dA]-NH2; staple (Z) 6-10) | 0.0031 µM | > 50 µM | > 50 µM | 140 µM | 1.44 µM | 4.34 µM |
| CC(=O)N[C@@H](C(=O)N[C@H](C)C(=O)N[C@H](Cc1c[nH]c2cc(F)ccc12)C(=O)N[C@H](Cc1ccc(O)cc1)C(=O)N[C@H](C)C(=O)NC1(C)CCC/C=C\CCCC(C)(C(=O)N[C@H](CC(C)C)C(=O)N[C@H](CO)C(=O)N[C@H](C)C(=O)N[C@H](C)C(=O)N[C@H](C)C(=O)N[C@H](CCC(=O)O)C(=O)N[C@H](C)C(=O)N[C@H](C)C(N)=O)NC(=O)[C@@H](CCC(N)=O)NC(=O)[C@@H](CCC(=O)O)NC(=O)[C@@H](Cc2ccc(C(F)(F)F)cc2)NC1=O)[C@H](C)O (stereo partly drawn) [Compound 7, Acetyl-^DPMI-δ-(6-10 olefinstaple) (D-K9D-Q, D-R12D-S, 3x(D-Ala)-(D-Glu)-2x(D-Ala)polypeptidetail)-NH2] (Ac-[dT][dA][dTrp(6-F)][dY][dA][ξαMeNle(6-ylidene)][dPhe(4-CF3)][dE][dQ][ξαMeNle(6-ylidene)][dL][dS][dA][dA][dA][dE][dA][dA]-NH2; staple (Z) 6-10) | 0.00043 µM | > 50 µM | > 50 µM | – | 1.41 µM | 0.79 µM |
